# Measurements taken from patent publication US6432655B1, “Method of obtaining compositions” (Synaptic Pharmaceutical Corporation, priority 1992, dated 2002).
# Read-outs that look alike come from different tables or passages of the source.
# Key:
# [1] = biological target: T1, human 5-HT4B receptor (clone hp78a) (Homo sapiens, UniProt P34969); test: [3H]5-HT radioligand binding to membranes of Cos-7 cells transiently expressing clone hp78a
# T1 construct: The entire coding region of the human 5-HT4B receptor (1338 bp); expressed in transfected cells; host or cells: Cos-7 (monkey kidney), transient, plasmid hp78a/EXJ (pcEXV-5HT4B)
# 5-HT4B receptor = biological target: T2, 5-HT4B receptor (Rattus norvegicus, UniProt P32305); test: [3H]5-CT receptor autoradiography on rat brain sections; assay type: binding
# T2 construct: from tissue; host or cells: rat brain cryostat sections (20 µm)
# [2] = test system: 5-HT receptors on NCB20 cells; conditions: Berry-Kravis and Dawson, 1983; read-out: affinity of [3H]-5-HT; cited from earlier work
# [3] = biological target: 5-HT receptor present in glial membranes; conditions: Fillion et al., 1980; property shared with hp78a; read-out: equilibrium dissociation constant Kd; cited from earlier work
# human 5-HT4B receptor [4] = biological target: T3, human 5-HT4B receptor (Homo sapiens, UniProt P34969); test: cAMP formation in intact, transiently transfected Cos-7 cells; assay type: cell-based; conditions: for FOLD cAMP STIMULATION: relative to basal levels
# T3 construct: The entire coding region of the human 5-HT4B receptor (1338 bp); expressed in transfected cells
# human 5-HT4B receptor [5] = biological target: T3, human 5-HT4B receptor; test: cell-based; assay type: cell-based; conditions: for Emax: L-M(TK-), read-out: Emax* (% 5-HT RESPONSE)
# [6] = test system: 5-HT receptor present in glial membranes; conditions: Fillion et al., 1980; property shared with hp78a; cited from earlier work
# [7] = Ki (apparent dissociation constants for clone hp78a)
# [8] = read-out: Ki (apparent dissociation constants for clone hp78a)
# [9] = 5 nM [3H]5-HT, seven concentrations of competitor, 30 min at 37° C., mean ± S.E.M., 2-5 determinations, read-out: Ki (apparent dissociation constants for clone hp78a)
# [10] = dissociation constant of antagonist, KB = [B]/(A′/A) − 1], read-out: KB
# [11] = normalized to the 5-HT maximal response
# T1 sequence (P34969 1-445 isoform P34969-2): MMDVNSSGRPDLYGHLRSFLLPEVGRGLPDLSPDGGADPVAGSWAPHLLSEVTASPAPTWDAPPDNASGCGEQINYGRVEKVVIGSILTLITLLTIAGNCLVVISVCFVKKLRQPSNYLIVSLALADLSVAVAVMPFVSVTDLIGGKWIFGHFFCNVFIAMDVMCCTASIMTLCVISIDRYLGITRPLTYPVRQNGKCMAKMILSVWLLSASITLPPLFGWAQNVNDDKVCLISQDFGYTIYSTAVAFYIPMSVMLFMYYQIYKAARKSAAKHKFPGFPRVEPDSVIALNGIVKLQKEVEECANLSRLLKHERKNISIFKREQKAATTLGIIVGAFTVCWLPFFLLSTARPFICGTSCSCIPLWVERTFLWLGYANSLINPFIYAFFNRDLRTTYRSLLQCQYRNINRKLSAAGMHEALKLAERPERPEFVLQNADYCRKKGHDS
# T3 sequence (P34969 1-445 isoform P34969-2): as above
# T2 sequence (P32305 whole entry): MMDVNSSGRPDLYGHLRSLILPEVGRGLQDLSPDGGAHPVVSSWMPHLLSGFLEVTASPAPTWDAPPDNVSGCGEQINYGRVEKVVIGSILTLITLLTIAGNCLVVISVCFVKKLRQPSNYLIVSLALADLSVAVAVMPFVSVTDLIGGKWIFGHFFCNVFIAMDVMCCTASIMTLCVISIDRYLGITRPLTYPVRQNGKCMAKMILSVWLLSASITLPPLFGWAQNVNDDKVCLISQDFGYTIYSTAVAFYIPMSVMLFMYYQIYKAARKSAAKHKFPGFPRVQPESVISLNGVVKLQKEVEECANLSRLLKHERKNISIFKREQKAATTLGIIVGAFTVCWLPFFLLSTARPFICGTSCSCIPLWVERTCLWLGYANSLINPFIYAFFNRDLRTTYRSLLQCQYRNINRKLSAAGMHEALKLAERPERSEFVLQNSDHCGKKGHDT
structure (smiles),measurement,setting,value
CC(N)Cc1c[nH]c2ccc(O)cc12 (racemic) [α-Methyl-5-hydroxy-tryptamine],Ki,[1]; [7],509 nM
CN1C[C@H](C(=O)N[C@]2(C)O[C@@]3(O)[C@@H]4CCCN4C(=O)[C@H](Cc4ccccc4)N3C2=O)C=C2c3cccc4[nH]cc(c34)C[C@H]21 [Ergotamine],Ki,[1]; [7],15 nM
same,Ki,[1]; Ki for clone hp78a,< 20 nM
same,effect on specific [3H]5-CT binding,"5-HT4B receptor; 1 μM, 0.5 nM [3H]5-CT",completely eliminated
NCCc1c[nH]c2ccc(O)cc12 [[^3H]5-HT],Kd,[2],~200 nM
same,Kd,[3],10 nM
"Nc1nc2c(ncn2[C@@H]2O[C@H](COP(=O)(O)OP(=O)(O)NP(=O)(O)O)[C@@H](O)[C@H]2O)c(=O)[nH]1 [Gpp(NH)p, 5′-guanylylimidodiphosphate]",reduction of high affinity [3H]5-HT binding,[1],75%
CC(C)NCC(O)COc1cccc2ccccc12 (stereo not shown) [Propranolol],PERCENT INHIBITION (displacement of specific [3H]5-HT binding),"[1]; 100 nM competitor, 5 nM [3H]5-HT, 30 min at 37° C.",0
COc1cc(N)c(Cl)cc1C(=O)NC1CN2CCC1CC2 (stereo not shown) [Zacopride],Ki,[1]; [8],> 5000 nM
same,activity at the clone hp78a receptor,human 5-HT4B receptor [4]; compounds used to define the classical 5-HT4 receptor,either poorly active or inactive
CC(C)NCC(O)COc1cccc2[nH]ccc12 (racemic) [Pindolol],Ki,[1]; [8],> 5000 nM
CN1C[C@H](CNC(=O)OCc2ccccc2)C[C@@H]2c3cccc4c3c(cn4C)C[C@H]21 [Metergoline],Ki,[1]; [9],6.4 ± 1.4 nM
same,antagonism of the 5-HT response,human 5-HT4B receptor [4]; 10 μM,almost completely
same,FOLD cAMP STIMULATION,human 5-HT4B receptor [4]; 10 μM drug,0
CCCN(CCC)CCc1c[nH]c2ccc(C(N)=O)cc12 [Dipropyl-5-carboxamidotryptamine],Ki,[1]; [8],37 ± 21 nM
same,EC50,human 5-HT4B receptor [5],2400 nM
same,Emax* (% 5-HT RESPONSE),human 5-HT4B receptor [5],86 ± 12 % 5-HT RESPONSE
same,INTRINSIC ACTIVITY,human 5-HT4B receptor [5],AGONIST (key: AGONIST indicates that the maximal response to the drug was at least 80% of the maximum response obtained with 5-HT)
Nc1ccc(CCN2CCN(c3cccc(C(F)(F)F)c3)CC2)cc1 [PAPP],PERCENT INHIBITION (displacement of specific [3H]5-HT binding),[1],21
same,effect on [3H]5-CT binding,5-HT4B receptor; masks: 100 nM PAPP and 160 nM (−)pindolol added together,markedly reduced
CCN(CC)C(=O)[C@@H]1C=C2c3cccc4[nH]c(Br)c(c34)C[C@H]2N(C)C1 [2-Bromo-LSD],Ki,[1]; [8],30 ± 10 nM
same,% INHIBITION OF 5-HT RESPONSE,human 5-HT4B receptor [4],95 ± 4.5%
same,FOLD cAMP STIMULATION,human 5-HT4B receptor [4]; 1 μM drug,0
same,INTRINSIC ACTIVITY,human 5-HT4B receptor [5],ANTAGONIST
same,Kb,human 5-HT4B receptor [5]; [10],12 ± 3 nM
same,Emax* (% 5-HT RESPONSE),human 5-HT4B receptor [5]; [11],0 % 5-HT RESPONSE
same,antagonism,[6],Potent antagonism
CNS(=O)(=O)Cc1ccc2[nH]cc(CCN(C)C)c2c1 [Sumatriptan],Ki,[1]; [8],951 ± 118 nM
CCCN(CCC)C1CCc2cccc(O)c2C1 (stereo not shown),stimulation of basal cAMP release,human 5-HT4B receptor [4]; 1 μM,about 2 fold
same,INTRINSIC ACTIVITY,human 5-HT4B receptor [5],PARTIAL AGONIST
same,functional character,human 5-HT4B receptor [5],weak agonist
same,Emax* (% 5-HT RESPONSE),human 5-HT4B receptor [5]; [11],51 ± 14 % 5-HT RESPONSE
COC(=O)[C@@H]1[C@H]2C[C@H]3c4[nH]c5ccccc5c4CCN3C[C@@H]2CC[C@@H]1O [Yohimbine],Ki,[1]; [8],2850 ± 354 nM
O=C1NCN(c2ccccc2)C12CCN(CC1COc3ccccc3O1)CC2 (stereo not shown) [Spiroxatrine],PERCENT INHIBITION (displacement of specific [3H]5-HT binding),"[1]; 30 nM competitor, 5 nM [3H]5-HT, 30 min at 37° C.",12
Cc1nc2sccn2c(=O)c1CCN1CCC(=C(c2ccc(F)cc2)c2ccc(F)cc2)CC1 [Ritanserin],Ki,[1]; [9],45 ± 10 nM
O=C(c1ccc(F)cc1)C1CCN(CCn2c(=O)[nH]c3ccccc3c2=O)CC1 [Ketanserin],Ki,[1]; [9],1330 ± 241 nM
CN1C[C@@H](NS(=O)(=O)N(C)C)C[C@@H]2c3cccc4c3c(cn4C)C[C@H]21 [Mesulergine],Emax,human 5-HT4B receptor [5],0%
same,Kb,human 5-HT4B receptor [5]; [10],20 ± 1 nM
CC(C)C[C@H]1C(=O)N2CCC[C@H]2[C@]2(O)O[C@](NC(=O)[C@@H]3C=C4c5cccc6[nH]c(Br)c(c56)C[C@H]4N(C)C3)(C(C)C)C(=O)N12 [Bromocriptine],Kb,human 5-HT4B receptor [5],240 ± 10 nM
same,Emax,human 5-HT4B receptor [5],0%
